The supplement of paper PMC10307832

Tests used:
Test in all cases: relative viability (nuclei count vs DMSO), 5 days (fraction); higher = more cells survive
NCI-H1915 = test system: NCI-H1915
Procedure, shortened: (§1)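 Lung cancer cell lines were seeded in 1536-well plates and dosed by pin tool the next day, with either a single drug or a fixed anchor-drug dose combined with five library-drug doses (not always all listed) spaced in √10 steps. Five days later, one step fixed the cells and stained their nuclei (final 0.05% Triton X-100, 1% formaldehyde, 1 ug/ml Hoechst), and nuclei were counted on 4× images. Relative viability is the nuclei count in treated wells divided by the count in vehicle wells, and each value is the median of duplicate plates.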

NCI-H1563 = test system: NCI-H1563
Procedure, shortened: as §1

201T = test system: 201T
Procedure, shortened: as §1

LOU-NH91 = test system: LOU-NH91
Procedure, shortened: as §1

NCI-H838 = test system: NCI-H838
Procedure, shortened: as §1

HOP-62 = test system: HOP-62
Procedure, shortened: as §1

NCI-H2126 = test system: NCI-H2126
Procedure, shortened: as §1

NCI-H1355 = test system: NCI-H1355
Procedure, shortened: as §1

NCI-H2347 = test system: NCI-H2347
Procedure, shortened: as §1

SW 1573 = test system: SW 1573
Procedure, shortened: as §1

NCI-H3122 = test system: NCI-H3122
Procedure, shortened: as §1

CAL-12T = test system: CAL-12T
Procedure, shortened: as §1

NCI-H1651 = test system: NCI-H1651
Procedure, shortened: as §1

NCI-H650 = test system: NCI-H650
Procedure, shortened: as §1

NCI-H322M = test system: NCI-H322M
Procedure, shortened: as §1

HCC-78 = test system: HCC-78
Procedure, shortened: as §1

LCLC-97TM1 = test system: LCLC-97TM1
Procedure, shortened: as §1

NCI-H441 = test system: NCI-H441
Procedure, shortened: as §1

SK-LU-1 = test system: SK-LU-1
Procedure, shortened: as §1

BEN = test system: BEN
Procedure, shortened: as §1

Nc1cccc2c1CN(C1CCC(=O)NC1=O)C2=O (stereo not drawn) [Lenalidomide] + CC(C)C[C@H](NC(=O)[C@H](Cc1ccccc1)NC(=O)c1cnccn1)B(O)O [Bortezomib] (partner 0.002 µM)
relative viability (NCI-H1915; first compound 0.253 µM): 0.985 | relative viability (NCI-H1915; first compound 0.8 µM): 0.69 | relative viability (NCI-H1915; first compound 2.53 µM): 1.06 | relative viability (NCI-H1915; first compound 8 µM): 0.952 | relative viability (NCI-H1563; first compound 0.253 µM): 0.807 | relative viability (NCI-H1563; first compound 0.8 µM): 0.846 | relative viability (NCI-H1563; first compound 2.53 µM): 0.887 | relative viability (NCI-H1563; first compound 8 µM): 0.748 | relative viability (201T; first compound 0.253 µM): 1.07 | relative viability (201T; first compound 0.8 µM): 0.553 | relative viability (201T; first compound 2.53 µM): 1.09 | relative viability (201T; first compound 8 µM): 1.11 | relative viability (LOU-NH91; first compound 0.253 µM): 0.478 | relative viability (LOU-NH91; first compound 0.8 µM): 0.433 | relative viability (LOU-NH91; first compound 2.53 µM): 0.501 | relative viability (LOU-NH91; first compound 8 µM): 0.522 | relative viability (NCI-H838; first compound 0.253 µM): 0.801 | relative viability (NCI-H838; first compound 0.8 µM): 0.887 | relative viability (NCI-H838; first compound 2.53 µM): 1.5 | relative viability (NCI-H838; first compound 8 µM): 0.446 | relative viability (HOP-62; first compound 0.253 µM): 0.701 | relative viability (HOP-62; first compound 0.8 µM): 0.417 | relative viability (HOP-62; first compound 2.53 µM): 1.06 | relative viability (HOP-62; first compound 8 µM): 0.722 | relative viability (NCI-H2126; first compound 0.253 µM): 1.17 | relative viability (NCI-H2126; first compound 0.8 µM): 0.971 | relative viability (NCI-H2126; first compound 2.53 µM): 1.12 | relative viability (NCI-H2126; first compound 8 µM): 1.1 | relative viability (NCI-H1355; first compound 0.253 µM): 1.23 | relative viability (NCI-H1355; first compound 0.8 µM): 0.426 | relative viability (NCI-H1355; first compound 2.53 µM): 1.29 | relative viability (NCI-H1355; first compound 8 µM): 1.03 | relative viability (NCI-H2347; first compound 0.253 µM): 1.1 | relative viability (NCI-H2347; first compound 0.8 µM): 0.904 | relative viability (NCI-H2347; first compound 2.53 µM): 0.979 | relative viability (NCI-H2347; first compound 8 µM): 0.435 | relative viability (SW 1573; first compound 0.253 µM): 1.14 | relative viability (SW 1573; first compound 0.8 µM): 1.05 | relative viability (SW 1573; first compound 2.53 µM): 1.23 | relative viability (SW 1573; first compound 8 µM): 1.03 | relative viability (NCI-H3122; first compound 0.253 µM): 1.04 | relative viability (NCI-H3122; first compound 0.8 µM): 1.05 | relative viability (NCI-H3122; first compound 2.53 µM): 0.98 | relative viability (NCI-H3122; first compound 8 µM): 1.13 | relative viability (CAL-12T; first compound 0.253 µM): 0.988 | relative viability (CAL-12T; first compound 2.53 µM): 1.14 | relative viability (CAL-12T; first compound 8 µM): 0.965 | relative viability (NCI-H1651; first compound 0.253 µM): 0.923 | relative viability (NCI-H1651; first compound 0.8 µM): 0.728 | relative viability (NCI-H1651; first compound 2.53 µM): 1.05 | relative viability (NCI-H1651; first compound 8 µM): 0.772 | relative viability (NCI-H650; first compound 0.253 µM): 0.854 | relative viability (NCI-H650; first compound 2.53 µM): 0.893 | relative viability (NCI-H650; first compound 8 µM): 0.577 | relative viability (NCI-H322M; first compound 0.253 µM): 1.18 | relative viability (NCI-H322M; first compound 0.8 µM): 1.21 | relative viability (NCI-H322M; first compound 2.53 µM): 1.31 | relative viability (NCI-H322M; first compound 8 µM): 1.17 | relative viability (HCC-78; first compound 0.253 µM): 0.469 | relative viability (HCC-78; first compound 0.8 µM): 0.368 | relative viability (HCC-78; first compound 2.53 µM): 0.461 | relative viability (HCC-78; first compound 8 µM): 0.392 | relative viability (LCLC-97TM1; first compound 0.253 µM): 0.673 | relative viability (LCLC-97TM1; first compound 0.8 µM): 0.514 | relative viability (LCLC-97TM1; first compound 2.53 µM): 0.705 | relative viability (LCLC-97TM1; first compound 8 µM): 0.416 | relative viability (NCI-H441; first compound 0.253 µM): 0.347 | relative viability (NCI-H441; first compound 0.8 µM): 0.383 | relative viability (NCI-H441; first compound 2.53 µM): 0.529 | relative viability (NCI-H441; first compound 8 µM): 0.485 | relative viability (SK-LU-1; first compound 0.253 µM): 1.31 | relative viability (SK-LU-1; first compound 0.8 µM): 1.38 | relative viability (SK-LU-1; first compound 2.53 µM): 1.25 | relative viability (SK-LU-1; first compound 8 µM): 0.862 | relative viability (BEN; first compound 0.253 µM): 1.04 | relative viability (BEN; first compound 0.8 µM): 0.505 | relative viability (BEN; first compound 2.53 µM): 1.02 | relative viability (BEN; first compound 8 µM): 0.524
